Results taken from article PMC2654097, “Orally Available Selective Melanocortin-4 Receptor Antagonists Stimulate Food Intake and Reduce Cancer-Induced Cachexia in Mice” (PLoS ONE, 2009).
Where two headings read alike, the source gives them in different places. Ends that are not written are not given here.

Legend:
[1] = test system: animals implanted with a colorectal tumor; set-up: method as in PMID 15027849; conditions: subcutaneous administration; cited from earlier work
[2] = test system: animals implanted with Lewis lung carcinoma; conditions: subcutaneous administration; cited from earlier work
[3] = test system: MC-5; set-up: method as in earlier work; conditions: MC-4 vs. MC-5; cited from earlier work
[4] = Brain and plasma concentrations in vivo; conditions: 60 mg/kg p.o., CD-1 mice; for Brain AUC / Plasma AUC: 0-6 hr; for Brain/plasma ratio: calculated from AUC
Procedure: Twelve weeks old male CD-1 (Hilltop Lab Animals, PA, USA) mice were dosed by gavage with either SNT207707 or SNT207858 at 60 mg/kg (n = 9 per compound). At 1, 3, and 6 hrs post-dose, 3 mice from each compound group were euthanized with CO2. Blood was collected by cardiac puncture, plasma was isolated immediately and then kept on dry ice until analysis. Brains were removed, rinsed with saline solution and stored at −80°C until analysis. Levels of the compound were determined by HPLC followed by mass spectrometry (MS/MS). Areas under the curve (AUC) of plasma and brain levels were computed from measured levels at 1, 3 and 6 hrs post-dose. Brain/plasma ratios were then calculated based on the AUCs. To assess the integrity of the blood-brain-barrier all animals were co-dosed with 10 mg/kg Atenolol.

[5] = target: MC-4 receptor; set-up: method as in earlier work; conditions: binding; read-out: IC50 (binding) / affinity on the MC-4 receptor; cited from earlier work
[6] = target: MC-4 receptor; set-up: method as in earlier work; conditions: function; cited from earlier work
[7] = test system: healthy mice; assay: Light phase food intake; type: in vivo, NMRI mice; conditions: for effect on food intake, single dose comparison / effect on food intake: 4 hrs; for effect on food intake, single dose comparison: p<0.01 vs vehicle; for amount of food taken relative to vehicle control group: p.o., four hour post-treatment observation period; for effect on food intake: single oral treatment by gavage, dose range; for effect on food intake / amount of food taken relative to vehicle treated controls: light phase; for amount of food taken relative to vehicle treated controls: single s.c. injection 20 mg/kg, 4 hrs observation, p<0.01
Procedure: Six weeks old female NMRI mice (RCC Ltd.; Füllinsdorf, CH) were randomly assigned to the various experimental groups and the vehicle controls. They were housed in groups of 3 mice per cage. After at least one week of acclimatization in the experimental room, each animal's weight was determined and compound or vehicle was administered at appropriate concentrations 5 hrs after lights on. Then, food consumption of each cage group was recorded by weighing of the food hopper over a period of 4 hrs. Food intake was then determined as the difference in food hopper weight at the beginning and end of the 4 hrs following administration of the compound or the vehicle. Since the amount of food taken over 4 hrs by single animals was close to the limit of detection, we decided to rely on mean food amounts taken per cage (i.e., per 3 mice), whereby each treatment group consisted of n = 6 cages. The measured values from each cage were normalized to 100 g body weight (BW). Previous experiments indicated an excellent correlation between food intake and reduction of food weight.

[8] = test system: C26 tumor bearing mice; assay: C26 adenocarcinoma-induced cachexia model; type: in vivo, BALB/c mice; conditions: for tumor induced weight loss: 30 mg/kg p.o. once daily starting the day after tumor implantation; for body composition (lean body mass and fat mass) / tumor weight / mice that did not show cachexia (loss of more than 5% of body weight): 30 mg/kg p.o. once daily; for body composition (lean body mass and fat mass): day 0 vs day 15, MRI relaxometry; for tumor weight: end of experiment, mean±SEM, not different from Vehicle+Tumor controls; for mice that did not show cachexia (loss of more than 5% of body weight): n = 9, Vehicle+Tumor controls 2 of 9 and 3 of 9
Procedure: Six week old male BALB/c mice (Harlan, The Netherlands) were used. The animals were single housed, and after a one week adaption period randomly assigned to the experimental or control groups. For the tumor implantation the mice were anaesthetized with 200 µl of ketamine/xylazine. Approximately 1×10^6 C26 cells suspended in phosphate buffered saline were then implanted unilaterally in the flank of the mice by subcutaneous injection. The non-tumor controls underwent the same procedure but received PBS injection only (n = 9 per group). Starting on the first day after tumor implantation, compounds or vehicle were administered orally in 5 ml/kg 1–2 hrs before the onset of the dark phase. Food intake and body weight were recorded daily. Lean and fat mass of each animal were determined by MRI relaxometry (EchoMRI-500, Echo Medical Systems, Houston, TX, USA) prior to tumor inoculation (day 0) and at the end of the experiment after removal of the tumor (typically day 15).

[9] = test system: MC-3; set-up: method as in earlier work; conditions: MC-4 vs. MC-3; cited from earlier work
[10] = test system: models of cancer-induced anorexia; set-up: method as in PMID 17584133, PMID 15800806; conditions: central administration; cited from earlier work

Molecule: COc1ccc(Br)cc1CCc1c(F)cccc1C1=NCCN1 [ML00253764, 2-[2-[2-(5-bromo-2-methoxyphenyl)-ethyl]-3-fluorophenyl]-4,5-dihydro-1H-imidazole]
- cachexia [1]: efficacious in reducing cachexia
- cachexia [2]: efficacious in reducing cachexia

Molecule: CC(C)CCN(CCC(C)C)C(=O)c1ccc2nc(-c3ccc(C#N)cc3)c(CCCN3CCCC3)n2c1.Cl [SNT207707]
- selectivity vs. MC-5 [3]: more than 200 fold
- Brain AUC [4]: 2307 nM·h
- Plasma AUC [4]: 6.373 µM·h
- Brain/plasma ratio [4]: 0.36
- Brain peak ([4]; levels at 1, 3, 6 hrs): ~580 nM
- Plasma peak ([4]; levels at 1, 3, 6 hrs): 1960 nM
- IC50 [5]: 8 nM
- IC50 [6]: 5 nM
- effect on food intake, single dose comparison ([7]; p.o. 120 mg/kg): statistically significant increases in food intake
- amount of food taken relative to vehicle control group [7]: roughly up to four times
- effect on food intake [7]: dose-dependently increased the food intake
- amount of food taken relative to vehicle treated controls [7]: roughly 3 fold
- tumor induced weight loss [8]: significantly reduced the tumor induced weight loss
- body composition (lean body mass and fat mass) [8]: loss of lean body mass and loss of fat mass was reduced
- tumor weight [8]: 1.03 ± 0.07 g
- mice that did not show cachexia (loss of more than 5% of body weight) [8]: 8 out of 9
- selectivity vs. MC-3 [9]: more than 200 fold

Molecule: CC[C@H](COc1cccnc1C1CCN(C(=O)[C@@H](Cc2ccc(Cl)cc2Cl)NC(=O)N2CCCC2)CC1)N1CCCC1 [SNT207858]
- selectivity vs. MC-5 [3]: 40 fold
- Brain AUC [4]: 437 nM·h
- Plasma AUC [4]: 4.405 µM·h
- Brain/plasma ratio [4]: 0.10
- Plasma peak ([4]; levels at 1, 3, 6 hrs): 1520 nM
- IC50 [5]: 22 nM
- IC50 [6]: 11 nM
- effect on food intake, single dose comparison ([7]; p.o. 60 mg/kg): statistically significant increases in food intake
- effect on food intake, single dose comparison ([7]; p.o. 120 mg/kg): statistically significant increases in food intake
- amount of food taken relative to vehicle control group [7]: roughly up to four times
- effect on food intake [7]: dose-dependently increased the food intake
- amount of food taken relative to vehicle treated controls [7]: roughly 3 fold
- tumor induced weight loss [8]: significantly reduced the tumor induced weight loss
- body composition (lean body mass and fat mass) [8]: loss of lean body mass and loss of fat mass was reduced
- tumor weight [8]: 1.11 ± 0.09 g
- mice that did not show cachexia (loss of more than 5% of body weight) [8]: 6 out of 9
- selectivity vs. MC-3 [9]: 170 fold

Molecule: AgRP: agouti-related protein, the endogenous inverse agonist at the MC-4 receptor (SSRRCVRLHESCLGQQVPCCDPCATCYCRFFNAFCYCRKLGTAMNPCSRT; ends and bridges not checked; cysteine pairing not given here; UniProt O00253 83-132, looked up)
- food intake [10]: increased food intake

Molecule: SHU-9119 [reference compound]
- food intake [10]: increased food intake
